The source of these data is patent US20030225007A1, “Sulfonamide derivatives of 3-substituted imidazol[1,2-d]-1,2,4-thiadiazoles and 3-substituted-[1,2,4] thiadiazolo[4,5-a] benzimidazole as inhibitors of fibrin cross-linking and transglutaminases” (Apotex Inc., priority 2002, published 2003).

The assay has as its target T1, Factor XIIIa (activated FXIII) (Homo sapiens, UniProt P00488).
T1 construct: purchased Enzyme Research Laboratories, Ltd
T1 sequence (P00488 39-732 limits assumed): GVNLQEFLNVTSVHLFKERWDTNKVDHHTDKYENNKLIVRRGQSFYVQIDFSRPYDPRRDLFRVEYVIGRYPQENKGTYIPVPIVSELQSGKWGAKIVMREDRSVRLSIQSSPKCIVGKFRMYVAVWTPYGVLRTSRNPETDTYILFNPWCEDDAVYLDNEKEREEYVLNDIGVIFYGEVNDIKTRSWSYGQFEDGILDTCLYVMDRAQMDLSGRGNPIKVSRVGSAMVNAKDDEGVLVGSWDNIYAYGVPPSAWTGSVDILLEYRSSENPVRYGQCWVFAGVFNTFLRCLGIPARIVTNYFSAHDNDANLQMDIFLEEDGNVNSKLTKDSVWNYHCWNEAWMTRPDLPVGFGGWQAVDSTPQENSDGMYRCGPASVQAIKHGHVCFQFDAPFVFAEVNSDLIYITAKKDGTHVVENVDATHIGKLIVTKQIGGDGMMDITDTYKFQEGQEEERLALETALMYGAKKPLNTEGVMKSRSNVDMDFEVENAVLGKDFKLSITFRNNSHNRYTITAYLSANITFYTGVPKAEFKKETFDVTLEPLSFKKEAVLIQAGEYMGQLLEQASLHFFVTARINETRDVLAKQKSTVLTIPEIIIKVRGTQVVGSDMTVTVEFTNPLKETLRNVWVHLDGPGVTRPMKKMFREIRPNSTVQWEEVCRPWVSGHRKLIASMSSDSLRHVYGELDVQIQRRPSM
Briefly: Inactivation of purified Factor XIIIa (monodansylcadaverine incorporation into dimethylcasein, fluorescence). To be noted: for IC50: purified activated FXIII, 50% enzyme inactivation after 5-min incubation with inhibitor at 37° C. in the absence of substrate, read-out: FXIIIa (IC50 in μM). In kind it is biochemical. Here is the method: FXIII (0.5 mg/mL, Enzyme Research Laboratories, Ltd.) in 50 mM Tris-HCl pH 7.5 containing 100 mM NaCl, 40 mM CaCl2, 1 mM EDTA and 0.1% poly(ethylene glycol) (app. MW=8000) was activated by incubation with 10 NIH units/mL of human thrombin (Calbiochem) at 37° C. for 20 min. Thrombin was quenched with 20 NIH units/mL of hirudin from Leech (Sigma).
Inhibitor solution in DMSO (14 μL) was added to 120 μL of 250 mM Tris-Cl pH 7.5 containing 40 mM CaCl2 and 1 mM EDTA and the solution was incubated at 37° C. for two minutes. Activated FXIII (5 μL, 0.5 mg/mL) was added and the mixture was incubated at 37° C. for 5 min.
An assay mixture composed of 50 mM Tris-Cl pH 8.0, 10 mM CaCl2, 1 mM EDTA, 0.1% poly(ethylene glycol) (app. MW=1000) and 20 μM monodansylcadaverine was prepared in a spectrofluorometric cell in a final volume of 2880 μL. Dimethylcasein (8 μL, 1% in 50 mM sodium phosphate pH 7.5) was added and the solution was incubated at 37° C. for a few minutes. To assay the residual enzyme activity, 120 μL of the solution containing the enzyme and the inhibitor was transferred to the assay mixture. The covalent incorporation of monodansylcadaverine into casein was monitored by an increase in fluorescence at λexc=360 nm and λem=500 nm as previously described (Curtis, C. G.; Lorand, L. Methods Enzymol. 1976, 45, 177-191). To determine uninhibited enzyme activity, DMSO was used in place of inhibitor solution in the above assay. IC50 were determined by plotting the percent of remaining enzyme activity against logarithm of inhibitor concentration. IC50 is defined here as an inhibitor concentration resulting in 50% enzyme inactivation after 5-min incubation of the enzyme with the inhibitor in the absence of the substrate. Second order rate constants for inactivation were determined using method described by Kitz and Wilson (Kitz, R.; Wilson, I. J. Biol. Chem. 1962, 237, 3245).

As for “4-benzyl-{N^ε-imidazo[1,2-d][1,2,4]thiadiazol- 3-yl-N^α-[(4- methylphenyl)sulfonyl]lysyl}piperidine”, the IC50 turned out to be 5.6 µM.
The same measure, in the same setting: the result for `NC(=O)CN(CCCCCCNc1nsc2nccn12)S(=O)(=O)c1cccc2ccccc12` [1 / NH2 / 1-naphthyl, N^2-[6-(imidazo[1,2-d][1,2,4]thiadiazol-3-ylamino)hexyl]-N^2-(1-naphthylsulfonyl)glycinamide] reads 6 µM; that for `CCOC(=O)CN(CCCCCCNc1nsc2nccn12)S(=O)(=O)c1cccc2ccccc12` [1 / OEt / 1-naphthyl, Ethyl N-[6-(imidazo[1,2-d][1,2,4]thiadiazol-3-ylamino)hexyl]-N-(1-naphthylsulfonyl) glycinate], 7.4 µM.
For `O=C(O)CN(CCCCCCNc1nsc2nccn12)S(=O)(=O)c1cccc2ccccc12` [1 / OH / 1-naphthyl, N-[6-(imidazo[1,2-d][1,2,4]thiadiazol-3-ylamino)hexyl]-N-(1-naphthylsulfonyl)glycine], the IC50 was 6.8 µM.
Take `NC(=O)CCN(CCCCCCNc1nsc2nccn12)S(=O)(=O)c1ccc(F)cc1F` [2 / NH2 / 2-F-4-F-Ph, N^3-[(2,4-difluorophenyl)sulfonyl]-N^3-[6-(imidazo[1,2-d][1,2,4]thiadiazol-3-ylamino)hexyl]-β-alaninamide]: the IC50 stood at 8.9 µM.
For the compound `CCOC(=O)CCN(CCCCCCNc1nsc2nccn12)S(=O)(=O)c1ccc(F)cc1F` [2 / OEt / 2-F-4-F-Ph, Ethyl N-[(2,4-difluorophenyl)sulfonyl]-N-[6-(imidazo[1,2-d][1,2,4]thiadiazol-3-ylamino)hexyl]-β-alaninate], the IC50 worked out at 6.8 µM.
As for `Cc1cc(C)c(S(=O)(=O)NCCCCCCNc2nsc3nccn23)c(C)c1` [2,4,6-TriMe-Ph, N-[6-(imidazo[1,2-d][1,2,4]thiadiazol-3-ylamino)hexyl]-2,4,6-trimethylbenzenesulfonamide], the IC50 is 1.3 µM.
In the case of `O=S(=O)(NCCCCCCNc1nsc2nccn12)c1ccc(Br)cc1Br` [2,4-dibromo-N-[6-(imidazo[1,2-d][1,2,4]thiadiazol-3-ylamino)hexyl]benzenesulfonamide], the kinact/KI (purified Factor XIIIa, method of Kitz and Wilson, read-out: Second order rate constant for inactivation) stood at 13000 M⁻¹ s⁻¹.
Turning to `N#Cc1ccccc1S(=O)(=O)NCCCCCCNc1nsc2nccn12` [2-CN-Ph, 2-cyano-N-[6-(imidazo[1,2-d][1,2,4]thiadiazol-3-ylamino)hexyl]benzenesulfonamide], the IC50 stood at 2.7 µM.
The same measure, in the same setting: the result for `NC(=O)c1ccccc1S(=O)(=O)NCCCCCCNc1nsc2nccn12` [2-CONH2-Ph, 2-({[6-(imidazo[1,2-d][1,2,4]thiadiazol-3-ylamino)hexyl]amino}sulfonyl)benzamide] reads 3 µM; that for `CNC(=O)c1ccccc1S(=O)(=O)NCCCCCCNc1nsc2nccn12` [2-CONHMe-Ph, 2-({[6-(imidazo[1,2-d][1,2,4]thiadiazol-3-ylamino)hexyl]amino}sulfonyl)-N-methylbenzamide], 13.8 µM; that for `O=C(O)c1ccccc1S(=O)(=O)NCCCCCCNc1nsc2nccn12` [2-COOH-Ph, 2-carboxy-N-[6-(imidazo[1,2-d][1,2,4]thiadiazol-3-ylamino)hexyl]benzenesulfonamide], 6.8 µM.
Turning to `COC(=O)c1ccccc1S(=O)(=O)NCCCCCCNc1nsc2nccn12` [2-COOMe-Ph, N-[6-(imidazo[1,2-d][1,2,4]thiadiazol-3-ylamino)hexyl]2-methoxycarbonylbenzenesulfonamide], the IC50 is 3.2 µM.
On to `O=S(=O)(NCCCCCCNc1nsc2nccn12)c1ccc(F)cc1Cl` [2-Cl-4-F-Ph, 2-chloro-4-fluoro-N-[6-(imidazo[1,2-d][1,2,4]thiadiazol-3-ylamino)hexyl]benzenesulfonamide], for which the half-inhibitory concentration (IC50) was 0.6 µM.
Regarding `O=S(=O)(NCCCCCCNc1nsc2nccn12)c1c(F)ccc(Br)c1F` [2-F-3-Br-6-F-Ph, 3-bromo-2,6-difluoro-N-[6-(imidazol[1,2-d][1,2,4]thiadiazol-3-ylamino)hexyl]benzenesulfonamide], the IC50 turned out to be 2.1 µM.
Still for that read-out and setting: the result for `COc1cc(C)c(S(=O)(=O)NCCCCCCNc2nsc3nccn23)c(C)c1C` [2-Me-3-Me-4-OMe-6-Me-Ph, N-[6-(imidazo[1,2-d][1,2,4]thiadiazol-3-ylamino)hexyl]-4-methoxy-2,3,6-trimethylbenzenesulfonamide] reads 14 µM; that for `Cc1cc(S(=O)(=O)NCCCCCCNc2nsc3nccn23)c(C)cc1Cl` [2-Me-4-C1-5-Me-Ph, 4-chloro-2,5-dimethyl-N-[6-(imidazol[1,2-d][1,2,4]thiadiazol-3-ylamino)hexyl]benzenesulfonamide], 0.95 µM.
On to `O=[N+]([O-])c1cc(C(F)(F)F)ccc1S(=O)(=O)NCCCCCCNc1nsc2nccn12` [2-NO2-4-CF3-Ph, N-[6-(imidazo[1,2-d][1,2,4]thiadiazol-3-ylamino)hexyl]-2-nitro-4-trifluorobenzenesulfonamide], for which the IC50 was 0.77 µM.
Consider `O=S(=O)(NCCCCCCNc1nsc2nccn12)c1ccc(Br)cc1OC(F)(F)F` [2-OCF3-4-Br, 4-bromo-N-[6-(imidazo[1,2-d][1,2,4]thiadiazol-3-ylamino)hexyl]-2-(trifluoromethoxy)benzenesulfonamide], for which the IC50 was determined as 0.42 µM.
The same measure, in the same setting: the result for `COc1cc(C)ccc1S(=O)(=O)NCCCCCCNc1nsc2nccn12` [2-OMe-4-Me-Ph, N-[6-(imidazol[1,2-d][1,2,4]thiadiazol-3-ylamino)hexyl]-2-methoxy-4-methylbenzenesulfonamide] reads 24 µM; that for `COc1ccc(Br)cc1S(=O)(=O)NCCCCCCNc1nsc2nccn12` [2-OMe-5-Br-Ph, 5-bromo--N-[6-(imidazo[1,2-d][1,2,4]thiadiazol-3-ylamino)hexyl]-2-methoxybenzenesulfonamide], 3.7 µM; that for `COc1ccc(OC)c(S(=O)(=O)NCCCCCCNc2nsc3nccn23)c1` [2-OMe-5-Ome-Ph, 2,5-dimethoxy-N-[6-(imidazo[1,2-d][1,2,4]thiadiazol-3-ylamino)hexyl]benzenesulfonamide], > 5 µM.
Regarding `O=S(=O)(NCCCCCCNc1nsc2nccn12)c1ccc2ccccc2c1` [2-naphthyl, N-[6-(imidazo[1,2-d][1,2,4]thiadiazol-3-ylamino)hexyl]naphthalene-2-sulfonamide], the IC50 came to 1.3 µM.
On to `NC(=O)CCCN(CCCCCCNc1nsc2nccn12)S(=O)(=O)c1cccc2ccccc12` [3 / NH2 / 1-naphthyl, 4-[[6-(imidazo[1,2-d][1,2,4]thiadiazol-3-ylamino)hexyl](1-naphthylsulfonyl)amino]butanamide], for which the IC50 stood at 8.6 µM.
On to `O=S(=O)(NCCCCCCNc1nsc2nccn12)c1cccc(C(F)(F)F)c1` [3-CF3-Ph, N-[6-(imidazo[1,2-d][1,2,4]thiadiazol-3-ylamino)hexyl]-3-trifluoromethylbenzenesulfonamide], for which the IC50 came out at 4.7 µM.
Still for that read-out and setting: the result for `O=C(O)c1cccc(S(=O)(=O)NCCCCCCNc2nsc3nccn23)c1` [3-COOH-Ph, 3-carboxy-N-[6-(imidazo[1,2-d][1,2,4]thiadiazol-3-ylamino)hexyl]benzenesulfonamide] reads 13.7 µM.
Regarding `O=S(=O)(NCCCCCCNc1nsc2nccn12)c1ccc(Br)cc1` [4-Br-Ph, 4-bromo-N-[6-(imidazo[1,2-d][1,2,4]thiadiazol-3-ylamino)hexyl]benzenesulfonamide], the IC50 amounted to 0.93 µM.
Regarding `N#Cc1ccc(S(=O)(=O)NCCCCCCNc2nsc3nccn23)cc1` [4-CN-Ph, 4-cyano-N-[6-(imidazo[1,2-d][1,2,4]thiadiazol-3-ylamino)hexyl]benzenesulfonamide], the IC50 worked out at 1.6 µM.
